Measured values taken from patent US20040142887A1, “Antigen-polymer compositions” (priority 2002, published 2004).
≈ marks a conversion by molar mass, not a printed value.

Assays:
[1] = not given; remark: listed apart in the source

Which solubility does the source give for CC[C@H](C)[C@H](NC(=O)CNC(=O)[C@@H](NC(=O)[C@H](Cc1ccccc1)NC(=O)[C@H](CCCCN)NC(=O)[C@H](CO)NC(=O)[C@H](CC(N)=O)NC(=O)[C@H](C)NC(=O)[C@H](CCCCN)NC(=O)[C@@H](NC(=O)[C@H](Cc1ccc(O)cc1)NC(=O)[C@H](CCC(N)=O)NC(=O)[C@@H](N)CS)[C@@H](C)CC)[C@@H](C)CC)C(=O)N[C@H](C(=O)N[C@@H](CCC(=O)O)C(=O)N[C@@H](CC(C)C)C(=O)N[C@@H](CC(=O)O)C(=O)N[C@@H](CC(=O)O)C(=O)N1CCC[C@H]1C(=O)N[C@@H](CCCNC(=N)N)C(=O)N[C@@H](Cc1ccccc1)C(=O)N[C@@H](CCC(N)=O)C(=O)N[C@@H](CC(=O)O)C(=O)N[C@@H](CO)C(=O)N[C@@H](CO)C(=O)N[C@@H](CO)C(=O)N[C@@H](CO)C(=O)N[C@@H](CCCCN)C(=O)N[C@@H](C)C(=O)N1CCC[C@H]1C(=O)N1CCC[C@H]1C(=O)N1CCC[C@H]1C(=O)N[C@@H](CO)C(=O)N[C@@H](CC(C)C)C(=O)N1CCC[C@H]1C(=O)N[C@@H](CO)C(=O)N1CCC[C@H]1C(=O)N[C@@H](CO)C(=O)N[C@@H](CCCNC(=N)N)C(=O)N[C@@H](CC(C)C)C(=O)N1CCC[C@H]1C(=O)NCC(=O)N1CCC[C@H]1C(=O)N[C@@H](CO)C(=O)N[C@@H](CC(=O)O)C(=O)N[C@H](C(=O)N1CCC[C@H]1C(=O)N[C@H](C(=O)N[C@@H](CC(C)C)C(=O)N1CCC[C@H]1C(=O)N[C@@H](CCC(N)=O)C(=O)O)[C@@H](C)CC)[C@@H](C)O)[C@@H](C)O [CTP37-TT2] here?
The solubility was ~70 mg/mL (≈ 12.8 mM).

What about the “stability to hydrolysis in solution” value ([1]; pH 1) of the same compound?
The value was “stable to hydrolysis except when the pH was very low (1-2)”.

What about the “peptide remaining soluble at acidic pH” value ([1]; pH 1.4) of the same compound?
The value was “all peptides remained soluble”.
